Results from US8709511B2, “External preparation composition for skin comprising ginseng flower or ginseng seed extracts” (Amorepacific Corporation, priority 2008, dated 2014).

Columns and labels:
[1] = system: type I procollagen in human fibroblasts; test: Type I procollagen assay (ELISA); type: cell-based; details: 10 ng/mL, 3 days; positive control set to 100
Description: Human fibroblasts were cultured in a 12-well culture plate at a concentration of 10 ^5 cells/well, and then the medium was replaced with media containing 1 ppm, 10 ppm and 50 ppm of the ginseng flower extract prepared in Example 1 or with media containing 1 ppm and 10 ppm of the ginseng seed oil prepared in Example 2 or the ginseng seed residue extract prepared in Example 3, as shown in Table 4. At 3 days of culture, the cells were harvested, and the amount of the produced type I procollagen was quantified using an ELISA method. The measurement results were calculated relative to 0 for the control group containing neither the ginseng flower extract nor the ginseng seed extract and 100 for the positive control group (human transforming growth factor-β1 (TGF-β1, Roche Co.)).

Human normal fibroblasts = test: Inhibition of oxidative damage of DNA by single cell gel electrophoresis (comet assay), H2O2 challenge; type: cell-based; details: 10 ppm
Description: Human normal fibroblasts were cultured for 24 hours and treated with varying concentrations of the ginseng flower extract prepared in Example 1, the ginseng seed oil prepared in Example 2, the ginseng seed residue extract prepared in Example 3 and vitamin E. After 12 hours, the cells were treated with the positive control H2O2 (final concentration: 10^−3 M), stained by electrophoresis, and then observed with a fluorescence microscope. The image analyzer Komet 3.1 (Kinetic Imaging, England) was used to analyze the tail length (μm) resulting from the digestion of DNA in each of 25 cells.

[2] = system: human HaCaT keratinocyte monolayer culture system; test: Inhibition of reactive oxygen species production after UVB (DCFH-DA fluorescence); type: cell-based
Description: Antioxidative effect of the ginseng flower extract and the ginseng seed extract was investigated by comparing the capacity of removing reactive oxygen species (ROS) produced in cells in response to UV radiation. The positive control group for the ginseng flower extract was treated with vitamin C (Sigma Co.), which is commonly used to compare antioxidative effect. And, the control group was left untreated. A human HaCaT keratinocyte monolayer culture system (P. Boukamp, German Cancer Research Center, Heidelberg, Germany) was treated with UV (UVB 30 mJ/cm^2) and then with the extract prepared in Example 1 at 10 ppm, 50 ppm and 100 ppm. Then, 2′,7′-dichlorodihydrofluorescein diacetate (DCFH-DA; Molecular Probes, Inc.) was measured with a fluorescence plate reader. Production of ROS was calculated relative to the UV-untreated control group. The positive control group for the ginseng seed extract was treated with Trolox (Aldrich Co.), which is commonly used to compare antioxidative effect. And, the control group was left untreated. […] Then, DCFH-DA (Molecular Probes, Inc.) was measured with a fluorescence plate reader. Inhibition of ROS production was calculated relative to the UV-treated control group.

[3] = system: UVB-darkened human skin (upper arm); test: Whitening on human skin after UVB-induced darkening (colorimeter); type: in vivo; details: applied on UVB-irradiated upper arm for 10 weeks; vehicle 0.51 ± 0.13
Description: In order to examine the whitening effect of the ginseng flower extract prepared in Example 1, the ginseng seed oil prepared in Example 2 and the ginseng seed residue extract prepared in Example 3 on human skin, the following test was carried out.
First, for 12 healthy men, a 1.5-cm perforated opaque tape was attached to the upper arm portion of the subjects, and then the attached portion was irradiated with UVB at a dose of about 1.5-2 times the minimal erythemal dose of each subject to induce skin darkening.
The color of the skin was measured with the colorimeter CR2002 (Minolta, Japan) at 1-week intervals.
Then, the difference in skin color (ΔL*) between the time point of initiation of application and the time point of completion of application of each test material was calculated according to Equation 3, and the calculation results are shown in Table 8. The whitening effect is evaluated by measuring the ΔL* value between the sample-applied portion and the control portion. […] L*=L* value at the time of completion of application−L* value at the time of initiation of application [Equation 3]

[4] = system: C57BL/6 mouse melanocytes (Mel-Ab cells); test: Melanin synthesis inhibition using mouse melanocytes (Dooley's method); type: cell-based; details: 72 h, 3 days
Description: Mouse melanocytes were used to examine the melanin synthesis inhibitory effect of the ginseng flower extract prepared in Example 1, the ginseng seed oil prepared in Example 2 and the ginseng seed residue extract prepared in Example 3.
First, C57BL/6 mouse melanocytes (Mel-Ab cells; Dooley, T. P. et al., Skin Pharmacol., 7, pp. 188-200) were cultured in Dulbecco's modified Eagle's medium (DMEM) containing 10% fetal bovine serum, 100 nM 2-O-tetradecanoylphorbol-13-acetate and 1 nM cholera toxin under the condition of 37° C. and 5% CO2 . The cultured Mel-Ab cells were detached with 0.25% trypsin-EDTA and cultured in a 24-well culture plate at a concentration of 10^5 cells/well. Then, from day 2 of culture, each of 10 ppm, 50 ppm and 100 ppm of the ginseng flower extract (Example 1), the ginseng seed oil (Example 2) and the ginseng seed residue extract (Example 3) was continuously added thereto and cultured for 3 days. The positive control group was treated with arbutin (Sigma Co.). Then, the culture media were removed, and the cells were washed with PBS and lysed with 1 N sodium hydroxide. The lysed cells were measured for absorbance at 400 nm, and then the inhibition of melanin production was calculated according to Equation 2. […] Melanin synthesis inhibition (%)=100−[(Absorbance of each test material/Absorbance of control)×100] […]

[5] = system: matrix metalloproteinase 1 (MMP-1) in human fibroblasts; test: Inhibition of UVB-induced MMP-1 expression (ELISA); type: cell-based; details: UVB 40 mJ/cm^2, 10 μM, 2 days; non-UV = 100, UV alone 152
Description: Human fibroblasts were cultured in a 12-well culture plate at a concentration of 10^5 cells/well, and then irradiated with 40 mJ/cm ^2 of UVB. Then, the culture medium was replaced with media containing 1 ppm, 10 ppm and 50 ppm of the ginseng flower extract prepared in Example 1. At 2 days of culture, the cells were harvested, and the amount of produced matrix metalloproteinase 1 (MMP-1) was quantified using an ELISA method. The measurement results were calculated relative to 100 for the non-UV-irradiated control group not treated with the test material. The positive control group was treated with retinoic acid (RA, Sigma Co.).

## TGF-β1: human transforming growth factor-β1 (Roche Co.), positive control
[1]
  Type I procollagen biosynthesis (%): 100%

## vitamin E
Human normal fibroblasts; 12 h before H2O2 10^-3 M, control 112.4
  Tail length (μm): 68.9 μm
Human normal fibroblasts; inhibition of oxidative DNA damage (tail length) vs control
  Inhibition (%): 38.7%

## Cc1c(C)c2c(c(C)c1O)CCC(C)(C(=O)O)O2 (centres unmarked) [Trolox]
[2]; UVB 30 mJ/cm^2, 0.1 mM, relative to UV-treated control
  Inhibition of ROS production (%): 42.7%

## Oc1ccc(O)cc1 [Hydroquinone, hydroquinone]
[3]
  Skin color brightness (ΔL*): 1.89 ± 0.15

## O=C1O[C@H]([C@@H](O)CO)C(O)=C1O [vitamin C]
[2]; UVB 30 mJ/cm^2, 100 μM, relative to UV-untreated control = 100 (UVB alone 161)
  ROS production (%): 72%

## OC[C@H]1O[C@@H](Oc2ccc(O)cc2)[C@H](O)[C@@H](O)[C@@H]1O [Arbutin, arbutin]
[4]
  inhibition at 100 ppm: 51%

## CC1=C(/C=C/C(C)=C/C=C/C(C)=C/C(=O)O)C(C)(C)CCC1 [RA, retinoic acid]
[5]
  MMP-1 biosynthesis (%): 45%
